Key:
KRAS G12D = target: T1, KRAS G12D (Homo sapiens, UniProt P01116, G12D); assay: HTRF assay, KRAS G12D interaction with SOS1; type: biochemical; conditions: bins <500 nM / 500 nM to 1000 nM, read-out: Inhibition of KRAS G12D (IC50)
T1 construct: made in house; host or cells: E. coli, e.g. BL21 (DE3)
Source text: (§1) This assay can be also used to assess a selective inhibition or reduction of signaling output of a mutant Ras protein relative to a wildtype, or relative to a different mutant Ras protein. For example, the equilibrium interaction of wildtype KRAS or K-Ras mutant (e.g., wildtype or a mutant thereof) with SOS1 (e.g., hSOS1) can be assessed as a proxy or an indication for the ability of a subject compound to bind and inhibit Ras protein. The HTRF assay detects from (i) a fluorescence resonance energy transfer (FRET) donor (e.g., antiGST-Europium) that is bound to GST-tagged K-Ras mutant to (ii) a FRET acceptor (e.g., anti-6His-XL665) bound to a His-tagged hSOSL1.
(§2) The assay buffer can contain ~5 mM HEPES pH 7.4, ~150 mM NaCl, ~1 mM DTT, 0.05% BSA and 0.0025% (v/v) Igepal. A Ras working solution is prepared in an assay buffer containing typically a suitable amount of the protein construct (e.g., GST-tagged K-Ras mutant) and the FRET donor (e.g., antiGST-Eu(K) from Cisbio, France). A SOS1 working solution is prepared in an assay buffer containing suitable amount of the protein construct (e.g., His-hSOS1) and the FRET acceptor (e.g., anti-6His-XL665 from Cisbio, France). A suitable amount of the protein construct will depend on the range of activity or range of IC50 values being detected or under investigation. For detecting an IC50 within a range of 500 nM, the protein constructs of the same range of molarity can be utilized.
(§3) A fixed volume of DMSO with or without test compound is transferred into a 384-well plate. Ras working solution is added to all wells of the test plate. SOS1 working solution is added to all wells except for those that are subsequently filled with inhibitor control solution. Upon incubation for about 10 minutes or longer, the fluorescence is measured with a M1000Pro plate reader (Tecan) using HTRF detection (excitation 337 nm, emission 1: 620 nm, emission 2: 665 nm). Compounds are tested in duplicate at different concentrations (for example, 10 μM, 2.5 μM, 0.63 μM, 0.16 μM, 0.04 μM, 0.01 μM test compound). The ratiometric data (i.e., emission 2 divided by emission 1) is used to calculate IC50 values against Ras using GraphPad Prism (GraphPad software). Signaling output measured in terms of IC50 values can be obtained and a ratio of IC50 against one mutant relative to another mutant can be calculated. For instance, a selective reduction of K-Ras G12S signaling output can be evidenced by a ratio greater than one. In particular, a selective reduction of K-Ras G12S signaling relative to K-Ras WT signaling is evidenced if the ratio of IC50 (against K-Ras WT) to IC50 (against K-Ras G12S) is greater than 1.

KRAS WT = target: T2, KRAS WT (Homo sapiens, UniProt P01116); assay: HTRF assay, wildtype KRAS interaction with SOS1; type: biochemical; conditions: bins <500 nM / 500 nM to 1000 nM, read-out: Inhibition of KRAS WT (IC50)
T2 construct: made in house; host or cells: E. coli, e.g. BL21 (DE3)
Source text: as §1, §2, §3

KRAS G12V = target: T3, KRAS G12V (Homo sapiens, UniProt P01116, G12V); assay: HTRF assay, KRAS G12V interaction with SOS1; type: biochemical; conditions: bins <500 nM / 500 nM to 1000 nM, read-out: Inhibition of KRAS G12V (IC50)
T3 construct: made in house; host or cells: E. coli, e.g. BL21 (DE3)
Source text: as §1, §2, §3

KRAS G12S = target: T4, KRAS G12S (Homo sapiens, UniProt P01116, G12S); assay: HTRF assay, KRAS G12S interaction with SOS1; type: biochemical; conditions: bins <500 nM / 500 nM to 1000 nM, read-out: Inhibition of KRAS G12S (IC50)
T4 construct: made in house; host or cells: E. coli, e.g. BL21 (DE3)
Source text: as §1, §2, §3

MiaPaca2 cells = assay: Ras cellular assay, growth of cells with K-Ras G12C mutation; type: cell-based; conditions: Homo sapiens, MIA PaCa-2; cell proliferation assay; bins ≤500 nM / >500 nM; read-out: Inhibition of MiaPaca2 Cells (IC50)
Experimental: For example, this assay can be also used to assess selective growth inhibition of a mutant Ras protein relative to a wildtype or different mutant Ras protein.
MIA PaCa-2 (ATCC CRL-1420) and NCI-H1792 (ATCC CRL-5895) cell lines comprise a G12C mutation and can be used to assess Ras cellular signaling in vitro, e.g., in response to an inhibitor compound of the present disclosure. […] MIA PaCa-2 culture medium is prepared with DMEM/Ham's F12 (e.g., with stable glutamine, 10% FCS, and 2.5% horse serum. NCI-H1792 culture medium is prepared with RPMI 1640 (e.g., with stable glutamine) and 10% FCS.
On a first day (e.g., Day 1), Softagar (Select Agar, Invitrogen, 3% in ddH2O autoclaved) is boiled and tempered at 48° C. Appropriate culture medium (i.e., medium) is tempered to 37° C. Agar (3%) is diluted 1:5 in medium (=0.6%) and plated into 96 well plates (Corning, #3904), then incubated at room temperature for agar solidification. A 3% agar is diluted to 0.25% in medium (1:12 dilution) and tempered at 42° C. Cells are trypsinized, counted, and tempered at 37° C. The cells (e.g., MIA PaCa-2 at about 125-150 cells, NCI-H1792 at about 1000 cells) are resuspended in […] 0.25% Agar and plated, followed by incubation at room temperature for agar solidification. The wells are overlaid with […] of the medium. Sister wells in a separate plate are plated for time zero determination. All plates are incubated overnight at 37° C. and 5% CO2.
On a second day (e.g., Day 2), time zero values are measured. A […] volume of Cell Titer 96 Aqueous Solution (Promega) is added to each well and incubated in the dark at 37° C. and 5% CO2. Absorption can be measured at 490 nm and reference wavelength 660 nm. DMSO-prediluted test compounds are added to wells of interest, e.g., with HP Dispenser, to one or more desired concentrations (e.g., a final DMSO concentration of 0.3%).
On a tenth day (e.g., Day 10), absorption by wells treated with the test compounds and control wells are measured with, for example, Cell Titer 96 AQueous and analyzed in comparison to the time zero measurements. The IC50 values are determined using the four parameter fit. The resulting IC50 value is a measurement of the ability of the test compound to reduce cell growth of Ras-driven cells (e.g., tumor cell lines) in vitro and/or in vivo.

T3 sequence (P01116 1-188 isoform P01116-2 G12V): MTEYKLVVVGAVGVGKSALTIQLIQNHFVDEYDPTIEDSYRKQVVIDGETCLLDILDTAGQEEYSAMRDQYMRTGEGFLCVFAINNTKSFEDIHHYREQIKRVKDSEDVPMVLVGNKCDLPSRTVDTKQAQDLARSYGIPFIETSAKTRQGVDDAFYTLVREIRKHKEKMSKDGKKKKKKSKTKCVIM
T1 sequence (P01116 1-188 isoform P01116-2 G12D): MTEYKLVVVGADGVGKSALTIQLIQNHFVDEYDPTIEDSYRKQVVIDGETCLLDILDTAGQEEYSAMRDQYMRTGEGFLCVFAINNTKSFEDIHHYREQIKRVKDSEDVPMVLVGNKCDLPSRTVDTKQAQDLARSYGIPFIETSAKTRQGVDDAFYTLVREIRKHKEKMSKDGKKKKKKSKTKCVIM
T2 sequence (P01116 1-188 isoform P01116-2): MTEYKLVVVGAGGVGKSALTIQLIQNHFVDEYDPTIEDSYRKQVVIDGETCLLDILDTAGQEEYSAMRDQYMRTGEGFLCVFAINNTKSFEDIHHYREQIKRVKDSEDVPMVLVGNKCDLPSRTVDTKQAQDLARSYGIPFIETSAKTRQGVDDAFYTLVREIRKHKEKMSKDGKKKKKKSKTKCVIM
T4 sequence (P01116 1-188 isoform P01116-2 G12S): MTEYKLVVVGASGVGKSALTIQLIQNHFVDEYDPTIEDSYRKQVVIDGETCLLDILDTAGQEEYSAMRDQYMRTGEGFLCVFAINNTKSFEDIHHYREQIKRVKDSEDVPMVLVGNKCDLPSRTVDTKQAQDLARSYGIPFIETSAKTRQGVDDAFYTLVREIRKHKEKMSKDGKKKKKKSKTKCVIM

Compound	IC50 (KRAS G12D)	IC50 (KRAS WT)	IC50 (KRAS G12V)	IC50 (KRAS G12S)	IC50 (MiaPaca2 cells)
CC(C)[C@@H]1C[C@H](N(C)c2nc(OC[C@@]34CCCN3C[C@H](F)C4)nc3c(F)c(-c4ccc(F)c5sc(N)c(C#N)c45)c(Cl)cc23)CN1C(=O)n1cnc(Cl)n1 [Compound 216, 2-amino-4-(6-chloro-4-(((3S,5S)-1-(3-chloro-1H-1,2,4-triazole-1-carbonyl)-5-isopropylpyrrolidin-3-yl)(methyl)amino)-8-fluoro-2-(((2R,7aS)-2-fluorotetrahydro-1H-pyrrolizin-7a(5H)-yl)methoxy)quinazolin-7-yl)-7-fluorobenzo[b]thiophene-3-carbonitrile]	500 to 1000 nM	< 500 nM	< 500 nM	< 500 nM	> 500 nM
CC1CC(N(C)c2nc(OC[C@@]34CCCN3C[C@H](F)C4)nc3c(F)c(-c4ccc(F)c5sc(N)c(C#N)c45)c(Cl)cc23)CN1C(=O)n1cnc(F)n1 (mixture of isomers) [Compound 150, 2-amino-4-(6-chloro-8-fluoro-4-((1-(3-fluoro-1H-1,2,4-triazole-1-carbonyl)-5-methylpyrrolidin-3-yl)(methyl)amino)-2-(((2R,7aS)-2-fluorotetrahydro-1H-pyrrolizin-7a(5H)-yl)methoxy)quinazolin-7-yl)-7-fluorobenzo[b]thiophene-3-carbonitrile]					≤ 500 nM
CN(c1nc(OC[C@@]23CCCN2C[C@H](F)C3)nc2c(F)c(-c3ccc(F)c4sc(N)c(C#N)c34)c(Cl)cc12)C1CN(C(=O)n2ccnc2)CC1F (single isomer, unassigned) [Compound 189]					≤ 500 nM
CC1CC(N(C)c2nc(OC[C@@]34CCCN3C[C@H](F)C4)nc3c(F)c(-c4ccc(F)c5sc(N)c(C#N)c45)c(Cl)cc23)CCN1C(=O)n1ccnc1 (stereo partly drawn) [Compound 209, 4-(4-((1-(1H-imidazole-1-carbonyl)-2-methylpiperidin-4-yl)(methyl)amino)-6-chloro-8-fluoro-2-(((2R,7aS)-2-fluorotetrahydro-1H-pyrrolizin-7a(5H)-yl)methoxy)quinazolin-7-yl)-2-amino-7-fluorobenzo[b]thiophene-3-carbonitrile]	< 500 nM				≤ 500 nM

Continued, values first:

IC50 (KRAS G12D)	IC50 (KRAS WT)	IC50 (KRAS G12V)	IC50 (KRAS G12S)	IC50 (MiaPaca2 cells)	Compound
< 500 nM	< 500 nM	< 500 nM	< 500 nM	≤ 500 nM	CC[C@H]1N(C(=O)n2cc(C#N)nc2C)C[C@]12CCCCN(c1nc(OC[C@@]34CCCN3C[C@H](F)C4)nc3c(F)c(-c4ccc(F)c5sc(N)c(C#N)c45)c(Cl)cc13)C2 (atropisomer, axis not shown; (aS)) [Compound 117, 1-((1R,4R)-6-(7-((R)-2-amino-3-cyano-7-fluorobenzo[b]thiophen-4-yl)-6-chloro-8-fluoro-2-(((2R,7aS)-2-fluorotetrahydro-1H-pyrrolizin-7a(5H)-yl)methoxy)quinazolin-4-yl)-1-ethyl-2,6-diazaspiro[3.6]decane-2-carbonyl)-2-methyl-1H-imidazole-4-carbonitrile]
< 500 nM	< 500 nM	< 500 nM	< 500 nM	≤ 500 nM	CCN(c1nc(OC[C@@]23CCCN2C[C@H](F)C3)nc2c(F)c(-c3ccc(F)c4sc(N)c(C#N)c34)c(C3CC3)cc12)[C@@H]1CCN(C(=O)n2ccnc2C)[C@@H]1C [Compound 171, 2-amino-4-(6-cyclopropyl-4-(ethyl((2R,3R)-2-methyl-1-(2-methyl-1H-imidazole-1-carbonyl)pyrrolidin-3-yl)amino)-8-fluoro-2-(((2R,7aS)-2-fluorotetrahydro-1H-pyrrolizin-7a(5H)-yl)methoxy)quinazolin-7-yl)-7-fluorobenzo[b]thiophene-3-carbonitrile]
< 500 nM	< 500 nM	< 500 nM	< 500 nM	≤ 500 nM	CCN(c1nc(OC[C@@]23CCCN2C[C@H](F)C3)nc2c(F)c(-c3cccc4sc(N)c(C#N)c34)c(Cl)cc12)[C@@H]1CCN(C(=O)n2cc(C)nc2C)[C@@H]1C [Compound 195, 2-amino-4-(6-chloro-4-(((2R,3R)-1-(2,4-dimethyl-1H-imidazole-1-carbonyl)-2-methylpyrrolidin-3-yl)(ethyl)amino)-8-fluoro-2-(((2R,7aS)-2-fluorotetrahydro-1H-pyrrolizin-7a(5H)-yl)methoxy)quinazolin-7-yl)benzo[b]thiophene-3-carbonitrile]
< 500 nM	< 500 nM	< 500 nM	< 500 nM	≤ 500 nM	CC[C@@H]1[C@H](N(C)c2nc(OC[C@@]34CCCN3C[C@H](F)C4)nc3c(F)c(-c4ccc(F)c5sc(N)c(C#N)c45)c(Cl)cc23)CCN1C(=O)n1ccnc1 [Compound 198, 2-amino-4-(6-chloro-4-(((2R,3R)-2-ethyl-1-(1H-imidazole-1-carbonyl)pyrrolidin-3-yl)(methyl)amino)-8-fluoro-2-(((2R,7aS)-2-fluorotetrahydro-1H-pyrrolizin-7a(5H)-yl)methoxy)quinazolin-7-yl)-7-fluorobenzo[b]thiophene-3-carbonitrile]
				≤ 500 nM	CCN(c1nc(OCC23CCCN2C(COc2cc(C(F)(F)F)ncn2)CC3)nc2c(F)c(-c3ccc(F)c4sc(N)c(C#N)c34)c(Cl)cc12)[C@@H]1CCN(C(=O)n2cc(C)nc2C)[C@@H]1C (single isomer, unassigned) [Compound 217]
